# Assay results as given in US20140163099A1, “ANTIMICROBIAL COMPOSITION” (TAKASAGO INTERNATIONAL CORPORATION, priority 2011, published 2014).
# How the values were obtained:
# Assay in all cases: Growth inhibition activity (MIC, agar) against aerobic bacteria
# Type in all cases: cell-based
# [1] = system: Corynebacterium minutissimum (NBRC15361T); conditions: Corynebacterium minutissimum; strain NBRC15361T; Mueller Hinton Agar, 37 degrees C. overnight; read-out: MIC (Minimum Inhibitory Concentration)
# Description: (§1) In the present invention, the growth inhibition activity, which is an indicator of the antimicrobial activity, is evaluated by determining the Minimum Inhibitory Concentration (MIC) with an agar or liquid medium.
# (§2) In the test for the growth inhibition activity, the following strains were used as skin-related bacteria: • Staphylococcus epidermidis: Staphylococcus epidermidis (JCM2414T and ATCC 12228) • Staphylococcus aureus: Staphylococcus aureus (NBRC12732 and JCM2151) • Skin indigenous bacteria which introduce a superficial infection: Corynebacterium minutissimum (NBRC15361T) • Armpit odor-causing bacteria: Corynebacterium xerosis (JCM1324)
# (§3) The test strains were cultured in the liquid medium which the Bioresource center recommends, and then the test strains were subcultured to a Mueller Hinton Broth (Difco) at 30 degrees C. The grown bacteria were diluted to 10^6 CFU/ml with saline to adjust the bacteria fluids for inoculation.
# (§4) Furthermore, in order to examine the growth inhibition activities against the bacteria by the above cooling agents, the concentration of the cooling agents: (3S)-CA20, (3R)-CA20, CA1, CA5, CA15, CA55 or CA MGH was diluted with ethanol to the required level of concentration for the determining the Minimum Inhibitory Concentration to produce the sample liquids.
# (§5) Next, 100 μL of each sample liquid was added to 10 mL of a Mueller Hinton Agar (Difco) agar medium solution in a soluble state, and each agar medium solution was poured into a petri dish and solidified to prepare test plates having several concentrations of the sample liquids (several concentrations of the above cooling agents). Subsequently, 5 μL of the above bacteria fluids for inoculation were stamped on the test plates, and then the test plates were cultured at 37 degrees C. overnight.
# (§6) In this way, the growth inhibition activities by (3S)-CA20, (3R)-CA20, CA1, CA5, CA15, CA55, CA MGH were examined. The minimum concentration of the cooling agent in which the growth of bacteria could not be confirmed was considered as the MIC (Minimum Inhibitory Concentration).
# (§7) The minimum concentration of the cooling agent in which the grown strain could not be confirmed was considered as the MIC (Minimum Inhibitory Concentration).
# [2] = system: Corynebacterium xerosis (JCM1324); conditions: Corynebacterium xerosis; strain JCM1324; Mueller Hinton Agar, 37 degrees C. overnight; read-out: MIC (Minimum Inhibitory Concentration)
# Description: as §1, §2, §3, §4, §5, §6, §7
# [3] = system: Staphylococcus epidermidis (ATCC 12228); conditions: strain ATCC12228, Mueller Hinton Agar, 37 degrees C. overnight, read-out: MIC (Minimum Inhibitory Concentration)
# Description: as §1, §2, §3, §4, §5, §6, §7
# [4] = system: Staphylococcus aureus (NBRC12732); conditions: Staphylococcus aureus; strain NBRC12732; Mueller Hinton Agar, 37 degrees C. overnight; read-out: MIC (Minimum Inhibitory Concentration)
# Description: as §1, §2, §3, §4, §5, §6, §7
# [5] = system: Staphylococcus epidermidis (JCM2414T); conditions: Staphylococcus epidermidis, strain JCM2414T; Mueller Hinton Agar, 37 degrees C. overnight; read-out: MIC (Minimum Inhibitory Concentration)
# Description: as §1, §2, §3, §4, §5, §6, §7
# [6] = system: Staphylococcus aureus (JCM2151); conditions: Staphylococcus aureus; strain JCM2151; Mueller Hinton Agar, 37 degrees C. overnight; read-out: MIC (Minimum Inhibitory Concentration)
# Description: as §1, §2, §3, §4, §5, §6, §7
# [7] = system: Pseudomonas aeruginosa (NBRC13275); conditions: Pseudomonas aeruginosa; strain NBRC13275; Mueller Hinton Agar, 37 degrees C. overnight; read-out: MIC (Minimum Inhibitory Concentration)
# Description: as §1
# (§8) Furthermore, the following bacteria were also used as other general aerobic bacteria: • Escherichia coli: Escherichia coli (NBRC3972) • Pseudomonas aeruginosa: Pseudomonas aeruginosa (NBRC13275) • Bacteria in intestines: Proteus vulgaris (NBRC3167) • Pneumobacillus: Klebsiella pneumoniae (NBRC13277) • Bacillus subtilis: Bacillus subtilis (NBRC3134)
# as §3, §4, §5, §6, §7
# [8] = system: Proteus vulgaris (NBRC3167); conditions: Proteus vulgaris; strain NBRC3167; Mueller Hinton Agar, 37 degrees C. overnight; read-out: MIC (Minimum Inhibitory Concentration)
# Description: as §1, §8, §3, §4, §5, §6, §7
# [9] = system: Escherichia coli (NBRC3972); conditions: Escherichia coli; strain NBRC3972; Mueller Hinton Agar, 37 degrees C. overnight; read-out: MIC (Minimum Inhibitory Concentration)
# Description: as §1, §8, §3, §4, §5, §6, §7
# [10] = system: Klebsiella pneumoniae (NBRC13277); conditions: Klebsiella pneumoniae; strain NBRC13277; Mueller Hinton Agar, 37 degrees C. overnight; read-out: MIC (Minimum Inhibitory Concentration)
# Description: as §1, §8, §3, §4, §5, §6, §7
# [11] = system: Bacillus subtilis (NBRC3134); conditions: Bacillus subtilis; strain NBRC3134; Mueller Hinton Agar, 37 degrees C. overnight; read-out: MIC (Minimum Inhibitory Concentration)
# Description: as §1, §8, §3, §4, §5, §6, §7
MIC [1] [µg/mL],MIC [2] [µg/mL],MIC [3] [µg/mL],MIC [4] [µg/mL],MIC [5] [µg/mL],MIC [6] [µg/mL],MIC [7] [µg/mL],MIC [8] [µg/mL],MIC [9] [µg/mL],MIC [10] [µg/mL],MIC [11] [µg/mL],Structure (SMILES)
1600,1600,1600,1600,1600,1600,> 1600,1600,1600,1600,1600,"CC1CCC(C(C)C)C(O)C1 (stereo not drawn) [l-menthol, menthol, reference compound]"
100,100,50,100,50,100,800,100,800,50,50,"CC1CCC(C(C)C)C(OC(=O)C=O)C1 (stereo not drawn) [CA MGH, menthyl glyoxylate]"
200,100,,200,100,100,> 1600,> 1600,> 1600,200,200,"CC(O)CC(=O)OC1CC(C)CCC1C(C)C [(3S)-CA20, menthyl 3-hydroxybutanoate]"
> 1600,> 1600,,> 1600,> 1600,> 1600,> 1600,> 1600,> 1600,> 1600,> 1600,"CNC(=O)C(C)(C(C)C)C(C)C [WS-23, N-methyl-2-isopropyl-2,3-dimethylbutanamide, reference compound]"
800,800,800,800,800,800,> 1600,> 1600,> 1600,800,800,"CC1CCC(C(C)C)C(OCCOCCO)C1 (stereo not drawn) [CA55, 2-(2-menthoxyethoxy)ethanol]"
800,800,1600,1600,800,800,> 1600,1600,> 1600,800,800,"CC1CCC(C(C)C)C(OCC(O)CO)C1 (stereo not drawn) [CA10, 3-menthoxypropane-1,2-diol, reference compound]"
800,800,800,800,800,400,> 1600,1600,> 1600,400,800,"CC1CCC(C(C)C)C(OCCO)C1 (stereo not drawn) [CA5, 2-(menthoxy)ethanol]"
200,400,400,400,400,200,> 1600,> 1600,> 1600,200,400,"CC1CCC(C(C)C)C(OCCCO)C1 (stereo not drawn) [CA15, 3-menthoxypropan-1-ol]"
> 1600,> 1600,> 1600,> 1600,> 1600,> 1600,> 1600,> 1600,> 1600,> 1600,800,"CC1CCC(C(C)(C)O)C(O)C1 (stereo not drawn) [CA38, p-menthane-3,8-diol, reference compound]"

Structure (SMILES),MIC [1] [µg/mL],MIC [2] [µg/mL],MIC [3] [µg/mL],MIC [4] [µg/mL],MIC [5] [µg/mL],MIC [6] [µg/mL],MIC [7] [µg/mL],MIC [8] [µg/mL],MIC [9] [µg/mL],MIC [10] [µg/mL],MIC [11] [µg/mL]
"CC1CCC(C(C)C)C(OCC(C)(O)CO)C1 (stereo not drawn) [CA1, 2-methyl-3-(menthoxy)propane-1,2-diol]",400,800,800,800,400,400,> 1600,> 1600,> 1600,400,400
